Data on six molecules can be found in US8188128B2, “Opioid receptor subtype-selective agents” (The University of Medicine and Dentistry of New Jersey, priority 2005, dated 2012).

Assay [1] has as its target T1, delta receptor (Mus musculus, UniProt P32300).
T1 construct: expressed in transfected cells
Description: Opioid receptor binding assay, δ, [3H]DPDPE, HEK 293 cell membranes. More on the design: species or system rat. The conditions noted are these: for Selectivity κ/δ / Selectivity μ/δ: ratio of IC50 values; for IC50: compounds of Formula II, Table III. Here is the method: (§1) Receptor binding assay: Cell membrane preparations were obtained from HEK 293-stable transfectants expressing either the murine δ or μ or the human κ receptor. Opioid receptor binding assays were conducted in duplicate on membrane preparations that had been resuspended in 50 mM Tris-HCl, pH 7.5, utilizing [^3H]DPDPE, [^3H]DAMGO and [^3H]U69593 as radiologand for δ, μ, and κ respectively and 10 μM cyclazocine to define non-specific binding. Following a 1 hour incubation on ice, binding assays were terminated by filtration through Whatman GF/B filters. Filters were soaked in Ecoscint liquid scintillation solution (National Diagnostics, Manville, N.J.) and filter-bound radioactivity was measured using a Packard Tri-Carb 2100 TR liquid scintillation analyzer. Receptor binding data was analyzed by non-linear regression of saturation and competition curves using Prisim 3.0 software (GraphPad Software, San Diego, Calif.). Protein concentrations were determined with the Bio-Rad protein using bovine serum albumin as the standard.

Assay [2] has as its target T2, human kappa receptor (Homo sapiens, UniProt P41145).
T2 construct: expressed in transfected cells
Description: Opioid receptor binding assay, κ, [3H]U69593, HEK 293 cell membranes. Here is the method:
as §1

Assay [3] addresses T3, δ-receptor (Mus musculus, UniProt P32300). Put plainly: Function at δ receptor (receptor down regulation assay, HEK 293 cells expressing FLAG-tagged δ-receptor). It is filed as cell-based. Further details: FLAG; expressed in transfected cells; host or cells: HEK 293 (G418 selection). The conditions noted are these: for Function at δ: compounds of Formula I. The procedure:
Receptor down regulation assays: HEK 293 cells expressing the FLAG-tagged δ-receptor were grown to near confluence in 100 mm dishes in DMEM media supplemented with 10% fetal calf serum and 0.25 mg/ml G418. Media was replaced with serum-free media prior to overnight incubation with 10 μM or 20 μM of DOP or control compound. Media was aspirated and cell washed twice with cold PBS. Cell homogenates were collected and further washed trice with 50 mM TRIS-HCl, pH 7.5. Protein concentration was measured using Bio-Rad Bradford reagent and equal amount of protein (50 μg) was used for binding assay. Binding assays were performed using [^3H]diprenorphine as the radioactive ligand. Binding assays were conducted as described above.

In assay [4] the target is T4, mu receptor (Mus musculus, UniProt P42866).
T4 construct: expressed in transfected cells
T4 sequence (P42866 whole entry): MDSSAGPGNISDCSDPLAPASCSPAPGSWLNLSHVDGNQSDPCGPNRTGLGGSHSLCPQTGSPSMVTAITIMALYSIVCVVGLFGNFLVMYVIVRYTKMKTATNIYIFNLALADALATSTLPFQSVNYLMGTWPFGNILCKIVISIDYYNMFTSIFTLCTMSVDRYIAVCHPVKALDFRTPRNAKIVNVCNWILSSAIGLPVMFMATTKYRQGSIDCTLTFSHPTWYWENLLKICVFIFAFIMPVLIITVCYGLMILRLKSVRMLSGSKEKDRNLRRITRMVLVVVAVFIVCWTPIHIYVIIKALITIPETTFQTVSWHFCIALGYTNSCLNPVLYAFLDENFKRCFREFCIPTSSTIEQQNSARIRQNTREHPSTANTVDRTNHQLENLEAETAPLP
Put plainly: Opioid receptor binding assay, μ, [3H]DAMGO, HEK 293 cell membranes. The conditions noted are these: compounds of Formula II, Table III. Further details: species or system rat. The procedure: as §1, with “Opioid” for “Receptor binding assay: Cell membrane preparations were obtained from HEK 293-stable transfectants expressing either the murine δ or μ or the human κ receptor. Opioid”

Assay [5] concerns the target T5, kappa opioid receptor (Homo sapiens, UniProt P41145).
T5 construct: expressed in transfected cells
Description: Function at the kappa opioid receptor. Particulars: Table III.

Assay [6] concerns the target T6, mu opioid receptor (Mus musculus, UniProt P42866).
T6 construct: expressed in transfected cells
Description: Function at the mu opioid receptor. Particulars: Table III.

Assay [7] addresses T3, δ-receptor. The conditions noted are these: literature values for comparison compounds; cited from earlier work.
The mark [8] stands for this setting: inhibition of [3H]U69593, HEK 293 cell membrane, compounds of Formula I, read-out: IC50 (nM) κ.
The mark [9] stands for this setting: compounds of Formula II, Table III, read-out: IC50 κ.

Where two headings read alike, the source gives them in different places.

T1 sequence (P32300 whole entry): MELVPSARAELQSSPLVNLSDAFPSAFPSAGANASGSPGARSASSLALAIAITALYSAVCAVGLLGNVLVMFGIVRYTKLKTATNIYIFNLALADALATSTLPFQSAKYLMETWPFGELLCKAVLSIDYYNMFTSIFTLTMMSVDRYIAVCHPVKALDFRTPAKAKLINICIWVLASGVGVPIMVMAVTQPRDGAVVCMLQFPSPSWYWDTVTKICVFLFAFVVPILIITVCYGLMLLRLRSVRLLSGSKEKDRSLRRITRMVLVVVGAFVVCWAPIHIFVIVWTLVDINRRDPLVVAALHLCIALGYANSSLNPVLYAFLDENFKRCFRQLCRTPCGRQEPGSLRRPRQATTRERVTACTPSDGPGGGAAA
T3 sequence (P32300 whole entry): as above
T2 sequence (P41145 whole entry): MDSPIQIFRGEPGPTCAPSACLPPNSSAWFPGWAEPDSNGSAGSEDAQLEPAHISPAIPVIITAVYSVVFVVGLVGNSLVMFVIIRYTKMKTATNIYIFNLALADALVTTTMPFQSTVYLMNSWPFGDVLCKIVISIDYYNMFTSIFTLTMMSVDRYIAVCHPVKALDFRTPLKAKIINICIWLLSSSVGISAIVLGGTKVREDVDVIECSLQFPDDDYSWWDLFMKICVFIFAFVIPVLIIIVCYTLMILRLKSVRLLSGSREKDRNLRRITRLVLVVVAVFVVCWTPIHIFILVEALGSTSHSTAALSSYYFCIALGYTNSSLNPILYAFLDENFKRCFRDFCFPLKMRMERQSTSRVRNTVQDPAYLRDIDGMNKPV
T5 sequence (P41145 whole entry): as above
T6 sequence (P42866 whole entry): as the sequence (P42866 whole entry) above

For the molecule `CN(C)Cc1nc(-c2cccc(C(C)(C)C)c2)n(-c2cccc(O)c2)n1` [DOP106, 3-[5-(3-tert-Butyl-phenyl)-3-dimethylaminomethyl-[1,2,4,]triazole-1-yl]-phenol], in assay [1], the “Selectivity κ/δ” value is on record as 7 and the “Selectivity μ/δ” value was found to be 50. Also, in assay [2] (setting [8]), the half-maximal inhibitory concentration (IC50) was found to be 341 ± 20 nM. Further, the “Function at δ” value in assay [3] is “Agonist”.

Regarding `CN(C)Cc1nc(-c2ccc(C(C)(C)C)cc2)n(-c2cccc(O)c2)n1` [DOP108, 3-[5-(4-tert-Butyl-phenyl)-3-dimethylaminomethyl-[1,2,4,]triazole-1-yl]-phenol], the IC50 in assay [2] (setting [8]) turned out to be 3850 ± 311 nM. In addition, the “Function at δ” value in assay [3] is recorded as “Agonist”.

`Cc1ccc(-c2nc(CN(C)C)nn2-c2cccc(O)c2)c(C)c1` [DOP110]: in assay [1], the “Selectivity κ/δ” value is on record as 1.3 and the “Selectivity μ/δ” value turned out to be 8.9. The IC50 in assay [2] (setting [8]) was determined as 351 ± 95 nM. Also, the “Function at δ” value in assay [3] is “Agonist”.

Regarding `CN(C)c1nnc(-c2cccc(O)c2)n1-c1ccc(C(C)(C)C)cc1` [DST8S], the IC50 in assay [1] was determined as 2780 nM; in assay [4] it was 991 nM; in assay [2] (setting [9]), 2130 nM.

`CN(C)c1nnc(-c2cccc(O)c2)n1-c1cccc(C(C)(C)C)c1` [DST10S]: the IC50 in assay [1] amounted to 114 nM; in assay [4] it was 118 nM; in assay [2] (setting [9]), 23 nM. The “Function at the kappa opioid receptor” value in assay [5] was “particularly strong agonist”. Also, in assay [6], the “Function at the mu opioid receptor” value is on record as “moderate to strong antagonist”. In addition, the “Function at the delta opioid receptor” value in assay [3] (compound of Formula II, Table III) was “moderate to strong antagonist”.

With `C=CCN1C[C@H](C)N([C@H](c2ccc(C(=O)N(CC)CC)cc2)c2cccc(OC)c2)C[C@H]1C` [SNC80], the “Function at δ” value in assay [7] was “Agonist”.

Usually IC50 stands for the concentration that gives 50% inhibition.
